Source: ChEMBL document CHEMBL5143515, “Identification of new halogen-containing 2,4-diphenyl indenopyridin-5-one derivative as a boosting agent for the anticancer responses of clinically available topoisomerase inhibitors” (Eur J Med Chem, 2022)
pIC50: −log10 of the molar value.

molecular target: DNA topoisomerase 2-alpha (Homo sapiens) (UniProt P11388); test: Inhibition of recombinant human topoisomerase 2alpha assessed as relaxation of supercoiled plasmid pBR322 DNA at 100 uM by agarose gel electrophoresis (reference value: 81%); conditions: not given
Sequence (P11388 whole entry): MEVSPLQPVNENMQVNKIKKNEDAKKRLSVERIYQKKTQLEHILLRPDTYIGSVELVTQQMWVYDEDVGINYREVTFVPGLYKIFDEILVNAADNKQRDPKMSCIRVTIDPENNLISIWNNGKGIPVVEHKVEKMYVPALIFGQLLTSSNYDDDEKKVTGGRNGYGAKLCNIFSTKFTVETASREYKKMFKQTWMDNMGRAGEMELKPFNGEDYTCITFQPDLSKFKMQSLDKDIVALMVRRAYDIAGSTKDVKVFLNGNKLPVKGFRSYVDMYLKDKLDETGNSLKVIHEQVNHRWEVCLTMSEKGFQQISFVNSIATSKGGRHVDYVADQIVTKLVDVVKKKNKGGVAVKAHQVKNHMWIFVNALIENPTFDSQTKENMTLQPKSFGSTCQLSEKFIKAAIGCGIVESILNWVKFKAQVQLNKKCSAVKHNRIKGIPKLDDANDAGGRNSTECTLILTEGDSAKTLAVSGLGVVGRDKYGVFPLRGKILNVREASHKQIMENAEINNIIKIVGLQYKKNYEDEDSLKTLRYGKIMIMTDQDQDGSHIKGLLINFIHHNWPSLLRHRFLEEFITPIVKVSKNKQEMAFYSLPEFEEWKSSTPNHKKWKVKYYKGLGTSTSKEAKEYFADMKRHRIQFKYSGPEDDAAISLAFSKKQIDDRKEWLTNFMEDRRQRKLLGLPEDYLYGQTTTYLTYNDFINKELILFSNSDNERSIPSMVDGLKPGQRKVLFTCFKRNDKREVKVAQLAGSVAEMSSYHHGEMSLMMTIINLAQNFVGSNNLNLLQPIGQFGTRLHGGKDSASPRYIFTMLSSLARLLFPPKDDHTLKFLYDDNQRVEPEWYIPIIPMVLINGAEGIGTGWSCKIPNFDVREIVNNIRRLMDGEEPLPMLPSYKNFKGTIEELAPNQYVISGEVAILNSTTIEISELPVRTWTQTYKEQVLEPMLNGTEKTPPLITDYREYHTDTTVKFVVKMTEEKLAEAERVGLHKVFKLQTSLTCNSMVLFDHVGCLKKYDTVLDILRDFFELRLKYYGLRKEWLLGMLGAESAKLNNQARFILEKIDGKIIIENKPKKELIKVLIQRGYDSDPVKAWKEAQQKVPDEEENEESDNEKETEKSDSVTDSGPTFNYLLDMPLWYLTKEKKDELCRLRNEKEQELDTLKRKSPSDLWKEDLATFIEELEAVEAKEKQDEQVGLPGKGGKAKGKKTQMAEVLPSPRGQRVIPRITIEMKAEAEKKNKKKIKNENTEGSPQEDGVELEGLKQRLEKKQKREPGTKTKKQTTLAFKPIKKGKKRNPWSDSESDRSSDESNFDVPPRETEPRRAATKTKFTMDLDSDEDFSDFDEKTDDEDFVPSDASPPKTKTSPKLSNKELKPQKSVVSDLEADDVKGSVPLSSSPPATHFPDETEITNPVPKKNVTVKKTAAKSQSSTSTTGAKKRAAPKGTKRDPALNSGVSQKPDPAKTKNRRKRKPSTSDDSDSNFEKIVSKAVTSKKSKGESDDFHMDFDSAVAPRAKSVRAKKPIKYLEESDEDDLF

SMILES | inhibition
O=C1c2ccccc2-c2nc(-c3cccc(OC(F)(F)F)c3)cc(-c3ccccc3)c21 | 0.5%

molecular target: T1, DNA topoisomerase 1 (Homo sapiens) (UniProt P11387); test: Inhibition of recombinant human topoisomerase 1 assessed as relaxation of supercoiled plasmid pBR322 DNA at 100 uM by agarose gel electrophoresis (reference value: […]%); conditions: not given
T1 sequence (whole entry): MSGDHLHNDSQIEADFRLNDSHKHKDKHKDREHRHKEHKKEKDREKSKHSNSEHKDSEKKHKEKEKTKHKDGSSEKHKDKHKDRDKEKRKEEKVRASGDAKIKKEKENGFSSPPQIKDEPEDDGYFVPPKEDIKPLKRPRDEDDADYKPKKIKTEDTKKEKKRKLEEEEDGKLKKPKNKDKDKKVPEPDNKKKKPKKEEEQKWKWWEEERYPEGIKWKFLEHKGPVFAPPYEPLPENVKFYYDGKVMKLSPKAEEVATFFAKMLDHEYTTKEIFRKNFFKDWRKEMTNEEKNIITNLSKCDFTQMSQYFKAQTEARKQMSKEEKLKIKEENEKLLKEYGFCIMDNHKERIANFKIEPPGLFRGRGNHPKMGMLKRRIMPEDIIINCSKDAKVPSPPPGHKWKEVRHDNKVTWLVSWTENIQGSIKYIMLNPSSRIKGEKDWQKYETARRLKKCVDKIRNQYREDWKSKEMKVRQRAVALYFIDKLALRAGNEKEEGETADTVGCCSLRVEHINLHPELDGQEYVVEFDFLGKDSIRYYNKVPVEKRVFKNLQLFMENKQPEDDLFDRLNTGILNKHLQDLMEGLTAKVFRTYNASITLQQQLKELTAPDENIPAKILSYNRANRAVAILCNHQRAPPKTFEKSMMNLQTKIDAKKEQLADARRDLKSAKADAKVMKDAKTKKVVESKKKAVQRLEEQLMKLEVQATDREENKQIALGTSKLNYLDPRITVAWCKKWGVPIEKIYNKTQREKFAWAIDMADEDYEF

SMILES | inhibition
OC1c2ccccc2-c2nc(-c3ccc(C(F)(F)F)cc3)cc(-c3ccccc3)c21 (stereo not given) | 13.8%
OC1c2ccccc2-c2nc(-c3cccc(C(F)(F)F)c3)cc(-c3ccccc3)c21 (stereo not given) | 25.9%
OC1c2ccccc2-c2nc(-c3ccccc3C(F)(F)F)cc(-c3ccccc3)c21 (stereo not given) | 7.2%

Now from value to compound:

inhibition | SMILES
26.8% | OC1c2ccccc2-c2nc(-c3ccc(OC(F)(F)F)cc3)cc(-c3ccccc3)c21 (stereo not given)
18.3% | OC1c2ccccc2-c2nc(-c3cccc(OC(F)(F)F)c3)cc(-c3ccccc3)c21 (stereo not given)

test system: HCT-15; test: Antiproliferative activity against human HCT-15 cells after 72 hrs by EZ-Cytox colorimetric assay; type: functional, cell-based; conditions: HCT-15, 72 h

SMILES | pIC50
O=C1c2ccccc2-c2nc(-c3ccccc3Br)cc(-c3ccccc3)c21 | < 4.30
OC1c2ccccc2-c2nc(-c3ccc(C(F)(F)F)cc3)cc(-c3ccccc3)c21 (stereo not given) | < 4.30
OC1c2ccccc2-c2nc(-c3cccc(C(F)(F)F)c3)cc(-c3ccccc3)c21 (stereo not given) | < 4.30
OC1c2ccccc2-c2nc(-c3ccc(OC(F)(F)F)cc3)cc(-c3ccccc3)c21 (stereo not given) | < 4.30
OC1c2ccccc2-c2nc(-c3ccccc3C(F)(F)F)cc(-c3ccccc3)c21 (stereo not given) | < 4.30
O=C1c2ccccc2-c2nc(-c3cccc(OC(F)(F)F)c3)cc(-c3ccccc3)c21 | 4.56
OC1c2ccccc2-c2nc(-c3cccc(OC(F)(F)F)c3)cc(-c3ccccc3)c21 (stereo not given) | < 4.30

test system: HeLa; test: Antiproliferative activity against human HeLa cells after 72 hrs by EZ-Cytox colorimetric assay; type: functional, cell-based; conditions: not given

SMILES | pIC50
O=C1c2ccccc2-c2nc(-c3ccccc3Br)cc(-c3ccccc3)c21 | < 4.30
OC1c2ccccc2-c2nc(-c3ccc(C(F)(F)F)cc3)cc(-c3ccccc3)c21 (stereo not given) | < 4.30
OC1c2ccccc2-c2nc(-c3cccc(C(F)(F)F)c3)cc(-c3ccccc3)c21 (stereo not given) | < 4.30
OC1c2ccccc2-c2nc(-c3ccc(OC(F)(F)F)cc3)cc(-c3ccccc3)c21 (stereo not given) | < 4.30
OC1c2ccccc2-c2nc(-c3ccccc3C(F)(F)F)cc(-c3ccccc3)c21 (stereo not given) | < 4.30
O=C1c2ccccc2-c2nc(-c3cccc(OC(F)(F)F)c3)cc(-c3ccccc3)c21 | < 4.30
OC1c2ccccc2-c2nc(-c3cccc(OC(F)(F)F)c3)cc(-c3ccccc3)c21 (stereo not given) | < 4.30

molecular target: DNA topoisomerase 2-alpha (Homo sapiens) (UniProt P11388); test: Inhibition of recombinant human topoisomerase 2alpha assessed as relaxation of supercoiled plasmid pBR322 DNA at 100 uM by agarose gel electrophoresis (reference value: 84.9%); conditions: not given

SMILES | inhibition
OC1c2ccccc2-c2nc(-c3ccc(C(F)(F)F)cc3)cc(-c3ccccc3)c21 (stereo not given) | 51.2%
OC1c2ccccc2-c2nc(-c3cccc(C(F)(F)F)c3)cc(-c3ccccc3)c21 (stereo not given) | 57.3%
OC1c2ccccc2-c2nc(-c3ccccc3C(F)(F)F)cc(-c3ccccc3)c21 (stereo not given) | 52.2%

Now from value to compound:

inhibition | SMILES
61.2% | OC1c2ccccc2-c2nc(-c3ccc(OC(F)(F)F)cc3)cc(-c3ccccc3)c21 (stereo not given)
66.7% | OC1c2ccccc2-c2nc(-c3cccc(OC(F)(F)F)c3)cc(-c3ccccc3)c21 (stereo not given)

test system: T47D; test: Antiproliferative activity against human T47D cells after 72 hrs by EZ-Cytox colorimetric assay; type: functional, cell-based; conditions: not given

SMILES | pIC50
O=C1c2ccccc2-c2nc(-c3ccccc3Br)cc(-c3ccccc3)c21 | < 4.30
OC1c2ccccc2-c2nc(-c3ccc(C(F)(F)F)cc3)cc(-c3ccccc3)c21 (stereo not given) | 4.61
OC1c2ccccc2-c2nc(-c3cccc(C(F)(F)F)c3)cc(-c3ccccc3)c21 (stereo not given) | < 4.30
OC1c2ccccc2-c2nc(-c3ccc(OC(F)(F)F)cc3)cc(-c3ccccc3)c21 (stereo not given) | < 4.30
OC1c2ccccc2-c2nc(-c3ccccc3C(F)(F)F)cc(-c3ccccc3)c21 (stereo not given) | < 4.30
O=C1c2ccccc2-c2nc(-c3cccc(OC(F)(F)F)c3)cc(-c3ccccc3)c21 | 4.78
OC1c2ccccc2-c2nc(-c3cccc(OC(F)(F)F)c3)cc(-c3ccccc3)c21 (stereo not given) | 4.83

test system: DU-145; test: Antiproliferative activity against human DU-145 cells after 72 hrs by EZ-Cytox colorimetric assay; type: functional, cell-based; conditions: DU-145, 72 h

SMILES | pIC50
O=C1c2ccccc2-c2nc(-c3ccccc3Br)cc(-c3ccccc3)c21 | 5.07
OC1c2ccccc2-c2nc(-c3ccc(C(F)(F)F)cc3)cc(-c3ccccc3)c21 (stereo not given) | 3.47
OC1c2ccccc2-c2nc(-c3cccc(C(F)(F)F)c3)cc(-c3ccccc3)c21 (stereo not given) | < 4.30
OC1c2ccccc2-c2nc(-c3ccc(OC(F)(F)F)cc3)cc(-c3ccccc3)c21 (stereo not given) | < 4.30
OC1c2ccccc2-c2nc(-c3ccccc3C(F)(F)F)cc(-c3ccccc3)c21 (stereo not given) | < 4.30
O=C1c2ccccc2-c2nc(-c3cccc(OC(F)(F)F)c3)cc(-c3ccccc3)c21 | 4.75
OC1c2ccccc2-c2nc(-c3cccc(OC(F)(F)F)c3)cc(-c3ccccc3)c21 (stereo not given) | < 4.30

molecular target: T1, DNA topoisomerase 1 (Homo sapiens); test: Inhibition of recombinant human topoisomerase 1 assessed as relaxation of supercoiled plasmid pBR322 DNA at 20 uM by agarose gel electrophoresis (reference value: 38.3%); conditions: not given

SMILES | inhibition
O=C1c2ccccc2-c2nc(-c3cccc(OC(F)(F)F)c3)cc(-c3ccccc3)c21 | 8.5%

molecular target: DNA topoisomerase 2-alpha (Homo sapiens) (UniProt P11388); test: Inhibition of recombinant human topoisomerase 2alpha assessed as relaxation of supercoiled plasmid pBR322 DNA at 100 uM by agarose gel electrophoresis (reference value: 82.2%); conditions: not given

SMILES | inhibition
O=C1c2ccccc2-c2nc(-c3ccccc3Br)cc(-c3ccccc3)c21 | 93.4%

molecular target: T1, DNA topoisomerase 1 (Homo sapiens); test: Inhibition of recombinant human topoisomerase 1 assessed as relaxation of supercoiled plasmid pBR322 DNA at 100 uM by agarose gel electrophoresis (reference value: 83.2%); conditions: not given

SMILES | inhibition
O=C1c2ccccc2-c2nc(-c3ccccc3Br)cc(-c3ccccc3)c21 | 82.9%

molecular target: DNA topoisomerase 2-alpha (Homo sapiens) (UniProt P11388); test: Inhibition of recombinant human topoisomerase 2alpha assessed as relaxation of supercoiled plasmid pBR322 DNA at 20 uM by agarose gel electrophoresis (reference value: 48.4%); conditions: not given

SMILES | inhibition
O=C1c2ccccc2-c2nc(-c3ccccc3Br)cc(-c3ccccc3)c21 | 60.4%

molecular target: DNA topoisomerase 2-alpha (Homo sapiens) (UniProt P11388); test: Inhibition of recombinant human topoisomerase 2alpha assessed as relaxation of supercoiled plasmid pBR322 DNA at 20 uM by agarose gel electrophoresis relative to control; conditions: not given

SMILES | inhibition
OC1c2ccccc2-c2nc(-c3ccc(C(F)(F)F)cc3)cc(-c3ccccc3)c21 (stereo not given) | 9.9%
OC1c2ccccc2-c2nc(-c3cccc(C(F)(F)F)c3)cc(-c3ccccc3)c21 (stereo not given) | 9.3%
OC1c2ccccc2-c2nc(-c3ccccc3C(F)(F)F)cc(-c3ccccc3)c21 (stereo not given) | 8.1%

The remaining lines, values ahead:

inhibition | SMILES
8.7% | OC1c2ccccc2-c2nc(-c3ccc(OC(F)(F)F)cc3)cc(-c3ccccc3)c21 (stereo not given)
12.2% | OC1c2ccccc2-c2nc(-c3cccc(OC(F)(F)F)c3)cc(-c3ccccc3)c21 (stereo not given)

molecular target: T1, DNA topoisomerase 1 (Homo sapiens); test: Inhibition of recombinant human topoisomerase 1 assessed as relaxation of supercoiled plasmid pBR322 DNA at 20 uM by agarose gel electrophoresis (reference value: 40.4%); conditions: not given

SMILES | inhibition
O=C1c2ccccc2-c2nc(-c3ccccc3Br)cc(-c3ccccc3)c21 | 0%

molecular target: T1, DNA topoisomerase 1 (Homo sapiens); test: Inhibition of recombinant human topoisomerase 1 assessed as relaxation of supercoiled plasmid pBR322 DNA at 100 uM by agarose gel electrophoresis (reference value: 81.9%); conditions: not given

SMILES | inhibition
O=C1c2ccccc2-c2nc(-c3cccc(OC(F)(F)F)c3)cc(-c3ccccc3)c21 | 100%
